# In publication PMC10140010 (Investigational New Drugs, 2023):
# Where “and” joins values, the source holds several entries; their conditions need not be identical. Identical values can stand only once.
# What was measured:
# OATP1B3 = assay: Uptake substrate investigation in HEK293 cells expressing transporter
# OAT1 = assay: as above; details: ATV 1 μM, no inhibitor, OAT1 pre-test
# OAT3 = assay: as above; details: ATV 1 μM, no inhibitor, OAT3 pre-test
# [1] = test system: LU-01-0015 (HIP-ALK) patient derived lung-tumor xenografts; assay: LU-01-0015 patient-derived xenograft model (tumor volume, body weight); type: in vivo, BALB/c nude mice; details: LU-01-0015 and NCI-H3122 xenograft models, all P < 0.05
# Description: Female BALB/c nude mice (4–6 weeks old) were provided by Shanghai Sipple-Bikai Laboratory Animal Co., Ltd. and Beijing Vital River Laboratory Animal Technology Co., Ltd. The mice were housed in a specific pathogen-free environment under a 12 h light/dark cycle, and had free access to sterile animal feed and water.
# PDX and CDX models were used for in vivo studies. Patient-derived tumors tissues were divided into about 30 mm^3 and transplanted into the right dorsal subcutis. Treatment began when the tumor size reached to 200 mm^3. The mice were randomly assignied into the corresponding dosing groups (9 mice in each group). Drugs were deliverd via daily oral for 4 weeks. Tumor size was measured periodically using a digital caliper (Cal Pro, Sylvac, Switzerland), and tumor volume was calculated as 0.5 × length × width^2. For more detailed information, please refer to Supplementary materials. All procedures and protocols of xenograft models were approved by the Institutional Animal Care and Use Committee of WuXi AppTec.
# Patient-derived tumor tissue was segmented into small pieces of approximately 20–30 mm^3 and transplanted subcutaneously into the right back of mice. When the tumor volume reached 150-200 mm^3, the mice were randomly divided into corresponding groups (9 mice in each group, female). Administered by gavage once daily for 4 weeks.
# ALK = details: cited from earlier work
# BCRP = target: T1, BCRP (Homo sapiens, UniProt Q9UNQ0); assay: ABC efflux transporter inhibitor test on Caco-2 cells (E3S efflux)
# T1 sequence (Q9UNQ0 1-655): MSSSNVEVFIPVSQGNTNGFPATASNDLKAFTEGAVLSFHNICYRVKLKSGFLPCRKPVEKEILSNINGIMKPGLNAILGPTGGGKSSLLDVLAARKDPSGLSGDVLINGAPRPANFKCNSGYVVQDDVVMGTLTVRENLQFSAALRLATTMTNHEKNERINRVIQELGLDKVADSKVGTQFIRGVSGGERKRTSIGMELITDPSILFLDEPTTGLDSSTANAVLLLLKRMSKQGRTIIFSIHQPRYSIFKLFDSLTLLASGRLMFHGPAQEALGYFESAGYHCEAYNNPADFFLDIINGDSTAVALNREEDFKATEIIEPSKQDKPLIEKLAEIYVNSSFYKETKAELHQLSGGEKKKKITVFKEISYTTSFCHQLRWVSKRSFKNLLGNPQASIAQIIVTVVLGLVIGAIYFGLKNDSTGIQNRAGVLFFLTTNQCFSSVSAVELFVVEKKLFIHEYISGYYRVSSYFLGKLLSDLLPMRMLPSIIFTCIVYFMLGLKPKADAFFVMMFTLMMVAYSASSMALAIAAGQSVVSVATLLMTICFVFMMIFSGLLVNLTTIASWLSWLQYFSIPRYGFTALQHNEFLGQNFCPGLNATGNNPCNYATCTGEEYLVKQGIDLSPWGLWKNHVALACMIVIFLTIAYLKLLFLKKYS
# MATE1 [2] = target: T2, MATE1 (Homo sapiens, UniProt Q96FL8); assay: Substrate investigation in HEK293 cells expressing transporter; type: in vitro ADME; set-up: No ESH8G27; host or cells: HEK293; details: MPP 10 μM, no inhibitor, pre-test
# T2 sequence (Q96FL8 1-570): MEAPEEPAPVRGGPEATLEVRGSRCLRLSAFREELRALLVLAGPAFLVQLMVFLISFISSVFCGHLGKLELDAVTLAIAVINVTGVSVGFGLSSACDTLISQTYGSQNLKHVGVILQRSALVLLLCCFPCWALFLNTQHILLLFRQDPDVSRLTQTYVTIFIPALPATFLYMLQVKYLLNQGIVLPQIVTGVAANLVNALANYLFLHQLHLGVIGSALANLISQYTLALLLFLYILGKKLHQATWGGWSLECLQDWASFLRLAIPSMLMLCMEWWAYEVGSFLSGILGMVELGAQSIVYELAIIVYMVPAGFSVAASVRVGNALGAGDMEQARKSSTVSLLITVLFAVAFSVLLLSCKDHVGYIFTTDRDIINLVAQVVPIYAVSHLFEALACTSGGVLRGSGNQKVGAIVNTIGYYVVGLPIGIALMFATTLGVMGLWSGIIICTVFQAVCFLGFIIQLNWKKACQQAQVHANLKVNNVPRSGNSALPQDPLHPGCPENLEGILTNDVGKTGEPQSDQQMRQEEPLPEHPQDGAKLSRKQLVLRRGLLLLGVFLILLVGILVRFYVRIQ
# OCT2 = target: T3, OCT2 (Homo sapiens, UniProt O15244); assay: Uptake substrate investigation in HEK293 cells expressing transporter; type: in vitro ADME; details: 20 μM, Suppl. Table 11
# T3 construct: No ESH9G27; host or cells: HEK293
# T3 sequence (O15244 1-555): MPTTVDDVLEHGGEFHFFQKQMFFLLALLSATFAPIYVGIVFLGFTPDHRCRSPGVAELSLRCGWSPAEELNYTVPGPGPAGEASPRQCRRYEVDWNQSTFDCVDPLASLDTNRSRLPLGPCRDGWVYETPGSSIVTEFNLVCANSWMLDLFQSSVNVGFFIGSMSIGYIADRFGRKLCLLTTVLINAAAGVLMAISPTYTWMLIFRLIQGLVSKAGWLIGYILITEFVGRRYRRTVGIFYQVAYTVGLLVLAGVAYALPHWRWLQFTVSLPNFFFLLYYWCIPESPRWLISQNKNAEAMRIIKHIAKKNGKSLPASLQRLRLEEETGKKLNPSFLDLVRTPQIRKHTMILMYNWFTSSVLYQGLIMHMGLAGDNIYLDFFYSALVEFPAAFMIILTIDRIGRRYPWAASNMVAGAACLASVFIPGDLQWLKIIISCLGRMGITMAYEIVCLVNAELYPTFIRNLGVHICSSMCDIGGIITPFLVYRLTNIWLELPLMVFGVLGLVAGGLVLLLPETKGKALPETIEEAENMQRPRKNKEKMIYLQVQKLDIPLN
# MATE1 [3] = target: T2, MATE1; assay: Uptake inhibitor investigation in HEK293 cells expressing transporter; details: HEK293 cells expressing MATE1, probe MPP, 10 μM
# [4] = MOCK293, ATV 1 μM, no inhibitor, OATP1B3 pre-test
# [5] = OATP1B1-293 (so in the source), ATV 1 μM, no inhibitor, OATP1B3 pre-test
compound,measurement,setting,value
CC(C)c1c(C(=O)Nc2ccccc2)c(-c2ccccc2)c(-c2ccc(F)cc2)n1CC[C@@H](O)C[C@@H](O)CC(=O)O [ATV],"Uptake transport activity, Mean","OATP1B3; MOCK293 (OATP1B3 set), 1 μM, Suppl. Table 11",2.359 pmol/mg protein/min
same,"Uptake transport activity, Mean",OATP1B3; [4],3.030 pmol/mg protein/min
same,"Uptake transport activity, Repeat 1 / Repeat 2",OATP1B3; [4],2.810 pmol/mg protein/min and 3.250 pmol/mg protein/min
same,"Uptake transport activity, Mean",OATP1B3; [5],13.60 pmol/mg protein/min
same,"Uptake transport activity, Repeat 1 / Repeat 2",OATP1B3; [5],14.30 pmol/mg protein/min and 12.90 pmol/mg protein/min
same,"Uptake transport activity, Net value","OATP1B3; transporter cells vs MOCK293, ATV 1 μM, no inhibitor, OATP1B3 pre-test",10.6 pmol/mg protein/min
same,"Uptake transport activity, Mean",OAT1; MOCK293,3.393 pmol/mg protein/min
same,"Uptake transport activity, Repeat 1 / Repeat 2",OAT1; MOCK293,3.281 pmol/mg protein/min and 3.505 pmol/mg protein/min
same,"Uptake transport activity, Mean",OAT1; OATP1B1-293 (so in the source),31.40 pmol/mg protein/min
same,"Uptake transport activity, Repeat 1 / Repeat 2",OAT1; OATP1B1-293 (so in the source),36.42 pmol/mg protein/min and 26.39 pmol/mg protein/min
same,"Uptake transport activity, Net value",OAT1; transporter cells vs MOCK293,28.01 pmol/mg protein/min
same,"Uptake transport activity, Mean",OAT3; MOCK293,75.16 pmol/mg protein/min
same,"Uptake transport activity, Repeat 1 / Repeat 2",OAT3; MOCK293,59.57 pmol/mg protein/min and 90.74 pmol/mg protein/min
same,"Uptake transport activity, Mean",OAT3; OATP1B1-293 (so in the source),727.9 pmol/mg protein/min
same,"Uptake transport activity, Repeat 1 / Repeat 2",OAT3; OATP1B1-293 (so in the source),731.6 pmol/mg protein/min and 724.2 pmol/mg protein/min
same,"Uptake transport activity, Net value",OAT3; transporter cells vs MOCK293,652.7 pmol/mg protein/min
Cc1cc(Nc2ncc(Cl)c(Nc3ccccc3S(=O)(=O)C(C)C)n2)c(OC(C)C)cc1C1CCNCC1 [Ceritinib],tumor growth inhibition,[1],able to inhibit tumor growth
same,GI50,"ALK; in vitro enzymatic study against ALK, read-out: half-maximal growth inhibition concentration (GI50)",0.15 nM
same,fold more potent against ALK than crizotinib,ALK; in vitro enzymatic study,~ 20 fold
"C[C@]12CC[C@@H]3c4ccc(OS(=O)(=O)O)cc4CC[C@H]3[C@@H]1CCC2=O [E3S, reference compound]",Exhaust Ratio Mean,"BCRP; E3S 10 µM alone, Caco-2",20.54
"COc1cc2c(cc1OC)CN(CCc1ccc(NC(=O)c3cccc4c(=O)c5cccc(OC)c5[nH]c34)cc1)CC2 [Elacridar, reference compound]",inhibition at 10 µM,"BCRP; human, Caco-2 cells, probe E3S (10 µM), Exhaust inhibition rate (%), substrate E3S 10 µM, inhibitor 10 µM",91.6%
same,Exhaust inhibition rate (%),"BCRP; substrate E3S 10 µM, inhibitor 10 µM",91.7%
C[n+]1ccc(-c2ccccc2)cc1 [MPP],"Uptake transport activity, Mean",MATE1 [2]; MATE1-293,1162.7 pmol/mg protein/min
same,"Uptake transport activity, Repeat 1 / Repeat 2",MATE1 [2]; MATE1-293,942.2 pmol/mg protein/min and 1383.2 pmol/mg protein/min
same,Ratio of uptake transit activity,MATE1 [2]; MATE1-293 vs MOCK293,6.86
same,"Uptake transport activity, Net value",MATE1 [2]; MATE1-293 vs MOCK293,993.3 pmol/mg protein/min
same,"Uptake transport activity, Mean",MATE1 [2]; MOCK293,169.4 pmol/mg protein/min
same,"Uptake transport activity, Repeat 1 / Repeat 2",MATE1 [2]; MOCK293,163.5 pmol/mg protein/min and 175.3 pmol/mg protein/min
CN(C)C(=N)N=C(N)N [Metformin],"Uptake transport activity, Mean",OCT2; MOCK293 (OCT2 set),3.503 pmol/mg protein/min
same,"Uptake transport activity, Mean",OCT2; OCT2-293,82.72 pmol/mg protein/min
same,Ratio of uptake transit activity,OCT2; OCT2-293 vs MOCK293,23.61
same,"Uptake transport activity, Net value",OCT2; OCT2-293 vs MOCK293,79.21 pmol/mg protein/min
CCc1nc(N)nc(N)c1-c1ccc(Cl)cc1 [Pyrimethamine],inhibition at 2 μM,MATE1 [3],123%
